The values below come from patent publication US5658781A, “Insecticidally effective peptides” (priority 1995, dated 1997).

Data set [1] relates to tobacco budworm (Heliothis virescens). The data set is described as follows: Injection paralysis assay in tobacco budworm larvae. The class given is in vivo.
For a further data set, the system named is mice. The class given is in vivo. The settings on record: i.p., approximate dose 0.9 mg/kg. As to the method:
Whole venom, 5 μl, obtained from D. canities as described herein was fatal to mice by intraperitoneal injection (i.p.) in three separate tests. Treated mice were initially indistinguishable from saline controls. About 10 to 15 minutes after injection, treated mice became moderately hyperactive, displaying a characteristic hopping gait; this was followed by a short period of uncoordination, labored breathing and convulsions. Death followed within 2 minutes of the initial onset of symptoms.
Residue 9.2 was injected into the intracerebral ventricles in four mice (approx. 28 gm) at a dose of approximately 30 μg per animal (approximately 1 mg/kg).
To characterize the vertebrate toxicity of this venom, pooled reversed-phase fractions of whole venom were tested in mice (FIG. 1). Fraction 2 comprised the components with tobacco budworm (TBW) activity.

In data set [2] the test system is cabbage looper (Trichoplusia ni). Briefly: Toxin injection PD50 in CL larvae. The class given is in vivo.
In data set [3] the test system is beet armyworm (Spodoptera exigua). The data set is described as follows: Toxin injection PD50 in BAW larvae. The class given is in vivo.
The next data set relates to maggot peripheral nerves. The data set is described as follows: Extracellular recording from house fly larval peripheral nerves. The class given is cell-based, Musca domestica.
Data set [4] deals with maggot neuromuscular junction. The data set is described as follows: Neuromuscular junction EPSP recording in house fly larvae. The class given is cell-based, Musca domestica.

“DK 11: Insecticidal peptide isolated from Diguetia canities venom, SEQ ID NO:3, about 6700 or 6740 daltons (AKDGDVKGPAGCMKYKSGDCRGKTCCDQQ)”: the PD50 in data set [1] (TBW larvae, injection, probit analysis) is reported as 0.71 nmol/gm; in data set [2], 0.86 nmol/gm; in data set [3], < 1.5 nmol/gm. For the same compound, the “insects exhibiting paralysis after 24 hours” value in data set [1] (TBW, 5.0 WVE/g, 24 hours) stood at 80%. Moreover, the “insects exhibiting paralysis after 48 hours” value in data set [1] (TBW, 5.0 WVE/g, 48 hours) came out at 60%. Moreover, the “effects in mice within 24 hours” value in the data set on mice is “no effects seen”.

`NC1=N[C@H](O)[C@H]2[C@H]3O[C@]4(O)O[C@@H]([C@@H](O)[C@@]2(N1)[C@@H]4O)[C@]3(O)CO` [TTX, tetrodotoxin]: the “effect on DK 9.2-induced increase in nerve discharge” value in the data set on maggot peripheral nerves was “rapidly blocked”. In addition, in data set [4], the “effect on sensitivity to subsequent treatment with 100 nM DK 9.2” value is reported as “rendered the preparation insensitive” and the “effect on the EPSP” value was “rapidly blocked”.
